Experimental findings from ChEMBL document CHEMBL5465560, “Selectivity Literature for EUbOPEN Chemogenomic Library” (2024) are described below.

The target in test [1] is Mitogen-activated protein kinase kinase kinase kinase 1 (Homo sapiens) (UniProt Q92918). Nature of the test: Selectivity interaction (Kinase panel (KiNativ target engagement assay in Jurkat cells)) EUB0001635a MAP4K1. Format: cell-based. The following applies: Selectivity number of off-targets 0.0, Selectivity number of targets 233.0, Source Knowledge https://www.sciencedirect.com/science/article/pii/S2451945619300674?via%3Dihub, at 1 µM.
Sequence of Mitogen-activated protein kinase kinase kinase kinase 1 (Homo sapiens) (Q92918 whole entry, looked up): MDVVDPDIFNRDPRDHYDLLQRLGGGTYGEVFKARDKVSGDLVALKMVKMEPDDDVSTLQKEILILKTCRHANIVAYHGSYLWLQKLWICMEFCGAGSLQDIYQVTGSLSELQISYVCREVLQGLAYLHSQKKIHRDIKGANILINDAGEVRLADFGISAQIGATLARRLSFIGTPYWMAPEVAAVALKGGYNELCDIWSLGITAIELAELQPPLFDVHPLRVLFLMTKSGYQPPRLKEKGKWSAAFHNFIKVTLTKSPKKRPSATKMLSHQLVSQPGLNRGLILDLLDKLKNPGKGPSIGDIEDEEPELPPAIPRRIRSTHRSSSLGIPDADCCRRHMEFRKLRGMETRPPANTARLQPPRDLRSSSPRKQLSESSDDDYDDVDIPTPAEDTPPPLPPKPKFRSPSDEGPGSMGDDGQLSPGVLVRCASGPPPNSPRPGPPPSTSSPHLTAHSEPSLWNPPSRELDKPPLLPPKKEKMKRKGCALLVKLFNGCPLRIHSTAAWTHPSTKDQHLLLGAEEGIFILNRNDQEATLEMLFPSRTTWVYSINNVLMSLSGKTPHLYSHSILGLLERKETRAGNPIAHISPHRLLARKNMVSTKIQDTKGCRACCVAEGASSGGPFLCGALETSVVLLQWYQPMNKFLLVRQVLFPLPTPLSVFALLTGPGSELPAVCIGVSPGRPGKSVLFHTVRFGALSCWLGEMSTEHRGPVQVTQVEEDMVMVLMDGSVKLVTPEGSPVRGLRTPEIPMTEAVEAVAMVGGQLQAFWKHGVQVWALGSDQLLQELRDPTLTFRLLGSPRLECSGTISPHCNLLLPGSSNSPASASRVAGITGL

Test [2] addresses T1, Serine/threonine-protein kinase TBK1 (Homo sapiens) (UniProt Q9UHD2).
T1 sequence (whole entry): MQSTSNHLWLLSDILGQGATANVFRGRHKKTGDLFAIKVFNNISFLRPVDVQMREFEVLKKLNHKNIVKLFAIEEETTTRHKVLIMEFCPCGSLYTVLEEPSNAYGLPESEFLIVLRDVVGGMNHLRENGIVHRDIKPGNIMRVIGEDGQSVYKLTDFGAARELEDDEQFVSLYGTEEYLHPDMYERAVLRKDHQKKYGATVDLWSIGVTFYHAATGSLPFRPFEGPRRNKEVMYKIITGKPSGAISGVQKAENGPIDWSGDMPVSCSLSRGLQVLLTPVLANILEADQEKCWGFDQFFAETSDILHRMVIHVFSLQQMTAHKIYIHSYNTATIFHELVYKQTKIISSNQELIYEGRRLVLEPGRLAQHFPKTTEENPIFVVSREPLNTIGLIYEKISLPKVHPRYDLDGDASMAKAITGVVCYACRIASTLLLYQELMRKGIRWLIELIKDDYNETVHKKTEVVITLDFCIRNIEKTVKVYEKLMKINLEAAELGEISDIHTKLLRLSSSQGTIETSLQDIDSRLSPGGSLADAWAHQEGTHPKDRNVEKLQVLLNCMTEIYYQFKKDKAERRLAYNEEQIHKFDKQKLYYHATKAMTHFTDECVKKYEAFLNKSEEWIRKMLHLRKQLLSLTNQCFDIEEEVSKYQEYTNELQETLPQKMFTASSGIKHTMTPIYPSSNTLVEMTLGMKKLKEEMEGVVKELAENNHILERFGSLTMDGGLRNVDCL
The experiment in a line: Selectivity interaction (Ambit KINOMEscan and KiNATiv profiling in Jurkat cells) EUB0000090b TBK1. Format: cell-based. The following applies: at 1 µM.

The target in test [3] is DNA (cytosine-5)-methyltransferase 3B (Homo sapiens) (UniProt Q9UBC3). The following applies: at 1 µM.
The target in test [4] is Tyrosine-protein kinase Fgr (Homo sapiens) (UniProt P09769). Nature of the test: Selectivity interaction (KinomeScan (DiscoverX)) EUB0000229b FGR. The following applies: at 10 µM.
In test [5] the target is Tyrosine-protein kinase SYK (Homo sapiens, UniProt P43405). The experiment in a line: Selectivity interaction (KinomeScan (DiscoverX)) EUB0000229b SYK. The settings on record: at 10 µM.
Test [6] addresses T2, Mitogen-activated protein kinase kinase kinase 2 (Homo sapiens) (UniProt Q9Y2U5).
T2 sequence (whole entry): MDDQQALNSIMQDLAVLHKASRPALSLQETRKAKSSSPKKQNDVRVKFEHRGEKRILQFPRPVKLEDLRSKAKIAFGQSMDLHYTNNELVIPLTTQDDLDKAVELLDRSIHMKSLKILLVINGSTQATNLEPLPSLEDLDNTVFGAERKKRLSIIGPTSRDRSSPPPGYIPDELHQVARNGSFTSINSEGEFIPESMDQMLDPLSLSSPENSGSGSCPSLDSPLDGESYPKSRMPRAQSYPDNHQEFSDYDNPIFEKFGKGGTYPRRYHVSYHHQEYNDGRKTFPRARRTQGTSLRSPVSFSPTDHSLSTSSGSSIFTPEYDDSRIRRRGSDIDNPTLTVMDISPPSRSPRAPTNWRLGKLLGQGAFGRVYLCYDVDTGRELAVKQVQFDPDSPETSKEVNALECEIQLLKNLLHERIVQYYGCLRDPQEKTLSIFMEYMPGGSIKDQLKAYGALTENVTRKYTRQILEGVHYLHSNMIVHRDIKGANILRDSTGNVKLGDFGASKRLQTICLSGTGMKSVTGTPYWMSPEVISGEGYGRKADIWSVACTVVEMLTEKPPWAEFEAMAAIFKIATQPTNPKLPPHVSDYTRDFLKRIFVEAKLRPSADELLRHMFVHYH
Nature of the test: Selectivity interaction (KinomeScan (DiscoverX)) EUB0001079a MAP3K2. The following applies: at 1 µM.

The target of test [7] is Focal adhesion kinase 1 (Homo sapiens, UniProt Q05397). Nature of the test: Selectivity interaction (ActivX KiNativ screen (ex vivo kinase selectivity in human PBMCs)) EUB0001619a PTK2. Format: cell-based. The settings on record: PBMC, at 1 µM.
Sequence of Focal adhesion kinase 1 (Q05397 2-1052 limits assumed): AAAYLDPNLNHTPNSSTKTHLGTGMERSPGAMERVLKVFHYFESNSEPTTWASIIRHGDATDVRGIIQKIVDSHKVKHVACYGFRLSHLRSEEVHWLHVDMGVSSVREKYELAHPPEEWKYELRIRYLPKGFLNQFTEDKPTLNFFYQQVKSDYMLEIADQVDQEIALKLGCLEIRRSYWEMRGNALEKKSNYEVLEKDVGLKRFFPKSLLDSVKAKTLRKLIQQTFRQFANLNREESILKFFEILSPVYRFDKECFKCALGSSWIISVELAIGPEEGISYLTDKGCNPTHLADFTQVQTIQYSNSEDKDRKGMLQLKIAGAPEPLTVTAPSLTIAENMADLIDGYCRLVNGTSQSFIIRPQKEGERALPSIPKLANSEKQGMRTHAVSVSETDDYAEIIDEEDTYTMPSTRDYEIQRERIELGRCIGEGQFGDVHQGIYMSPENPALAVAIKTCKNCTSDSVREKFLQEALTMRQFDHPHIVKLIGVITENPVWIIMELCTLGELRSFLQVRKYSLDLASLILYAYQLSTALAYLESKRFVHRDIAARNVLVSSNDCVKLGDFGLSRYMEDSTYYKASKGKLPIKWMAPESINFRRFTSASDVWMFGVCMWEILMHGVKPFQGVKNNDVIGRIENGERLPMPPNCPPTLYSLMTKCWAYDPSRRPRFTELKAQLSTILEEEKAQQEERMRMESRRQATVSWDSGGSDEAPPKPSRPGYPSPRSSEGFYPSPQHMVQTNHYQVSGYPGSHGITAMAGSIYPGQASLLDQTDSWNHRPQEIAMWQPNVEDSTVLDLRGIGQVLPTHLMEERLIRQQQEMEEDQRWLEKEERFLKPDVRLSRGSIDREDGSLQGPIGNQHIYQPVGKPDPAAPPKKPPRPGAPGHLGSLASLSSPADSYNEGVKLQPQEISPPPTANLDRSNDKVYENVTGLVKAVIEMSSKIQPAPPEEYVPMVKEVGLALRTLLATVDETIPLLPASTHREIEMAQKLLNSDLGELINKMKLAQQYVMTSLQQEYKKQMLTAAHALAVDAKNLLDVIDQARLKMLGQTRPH
In test [8] the target is Serine/threonine-protein kinase 25 (Homo sapiens) (UniProt O00506). Nature of the test: Selectivity interaction (KinomeScan (DiscoverX)) EUB0000695a STK25. The following applies: at 100 nM.
Test [9] concerns the target Phosphatidylinositol 4-phosphate 5-kinase type-1 gamma (Homo sapiens) (UniProt O60331). The experiment in a line: Selectivity interaction (KinomeScan (DiscoverX)) EUB0000695a PIP5K1C. The settings on record: at 100 nM.
In test [10] the target is T3, NUAK family SNF1-like kinase 2 (Homo sapiens) (UniProt Q9H093).
T3 sequence (whole entry): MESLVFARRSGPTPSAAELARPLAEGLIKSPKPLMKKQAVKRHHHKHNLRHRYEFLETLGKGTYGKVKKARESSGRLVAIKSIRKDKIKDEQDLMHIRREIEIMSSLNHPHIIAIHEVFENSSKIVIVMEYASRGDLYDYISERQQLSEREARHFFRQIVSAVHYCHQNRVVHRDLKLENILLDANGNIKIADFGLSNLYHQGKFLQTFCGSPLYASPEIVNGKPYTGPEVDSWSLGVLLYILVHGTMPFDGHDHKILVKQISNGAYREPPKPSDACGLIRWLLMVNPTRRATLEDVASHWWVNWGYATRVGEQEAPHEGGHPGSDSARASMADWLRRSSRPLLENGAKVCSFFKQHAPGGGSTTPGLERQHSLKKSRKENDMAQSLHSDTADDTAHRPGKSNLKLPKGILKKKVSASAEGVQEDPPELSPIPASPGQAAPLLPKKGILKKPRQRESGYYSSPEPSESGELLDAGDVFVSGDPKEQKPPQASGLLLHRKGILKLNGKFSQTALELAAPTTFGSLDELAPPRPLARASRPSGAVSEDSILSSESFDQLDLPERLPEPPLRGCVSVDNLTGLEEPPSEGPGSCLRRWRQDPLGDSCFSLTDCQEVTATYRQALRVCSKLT
Nature of the test: Selectivity interaction (KinomeScan (DiscoverX)) EUB0000092b NUAK2. The following applies: at 10 µM.

Test [11] relates to Tyrosine-protein kinase ABL1 (Homo sapiens), P00519 [F317L]. The experiment in a line: Selectivity interaction (KinomeScan (DiscoverX)) EUB0000618a ABL1. The settings on record: at 10 µM.
Sequence of Tyrosine-protein kinase ABL1 (Homo sapiens), P00519 [F317L] (P00519 whole entry F317L): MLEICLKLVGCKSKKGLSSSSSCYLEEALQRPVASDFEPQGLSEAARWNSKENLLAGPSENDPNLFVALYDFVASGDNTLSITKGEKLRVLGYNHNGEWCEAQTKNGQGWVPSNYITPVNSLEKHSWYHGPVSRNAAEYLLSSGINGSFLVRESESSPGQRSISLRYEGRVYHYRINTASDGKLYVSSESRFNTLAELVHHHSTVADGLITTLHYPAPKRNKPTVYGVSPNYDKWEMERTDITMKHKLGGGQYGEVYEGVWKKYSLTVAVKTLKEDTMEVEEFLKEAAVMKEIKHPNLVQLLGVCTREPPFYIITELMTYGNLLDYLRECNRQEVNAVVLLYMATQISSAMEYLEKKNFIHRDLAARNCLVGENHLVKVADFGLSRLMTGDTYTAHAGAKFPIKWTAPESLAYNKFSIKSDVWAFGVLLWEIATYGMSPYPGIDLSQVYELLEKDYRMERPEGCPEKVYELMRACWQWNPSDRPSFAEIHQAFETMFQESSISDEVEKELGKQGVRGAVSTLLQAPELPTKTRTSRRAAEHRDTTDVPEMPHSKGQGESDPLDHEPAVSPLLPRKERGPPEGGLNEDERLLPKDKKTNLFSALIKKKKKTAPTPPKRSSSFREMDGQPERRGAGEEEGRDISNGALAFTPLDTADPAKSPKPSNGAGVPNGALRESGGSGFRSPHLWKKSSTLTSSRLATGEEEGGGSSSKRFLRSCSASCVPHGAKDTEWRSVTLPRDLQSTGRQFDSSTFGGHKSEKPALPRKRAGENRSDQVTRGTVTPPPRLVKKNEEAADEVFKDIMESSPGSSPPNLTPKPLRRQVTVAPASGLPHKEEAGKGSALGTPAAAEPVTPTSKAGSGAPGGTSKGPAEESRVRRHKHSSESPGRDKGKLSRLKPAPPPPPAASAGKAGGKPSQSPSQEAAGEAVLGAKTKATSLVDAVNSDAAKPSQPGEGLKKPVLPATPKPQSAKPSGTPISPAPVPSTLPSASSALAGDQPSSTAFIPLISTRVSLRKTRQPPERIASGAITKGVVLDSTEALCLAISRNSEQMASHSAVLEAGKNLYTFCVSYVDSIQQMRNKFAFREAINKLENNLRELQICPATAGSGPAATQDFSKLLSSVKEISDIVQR
The target of test [12] is Tyrosine-protein kinase JAK2 (Homo sapiens, UniProt O60674). Nature of the test: Selectivity interaction (KinomeScan (DiscoverX)) EUB0000595a JAK2. The following applies: at 10 µM.
Sequence of Tyrosine-protein kinase JAK2 (O60674 whole entry): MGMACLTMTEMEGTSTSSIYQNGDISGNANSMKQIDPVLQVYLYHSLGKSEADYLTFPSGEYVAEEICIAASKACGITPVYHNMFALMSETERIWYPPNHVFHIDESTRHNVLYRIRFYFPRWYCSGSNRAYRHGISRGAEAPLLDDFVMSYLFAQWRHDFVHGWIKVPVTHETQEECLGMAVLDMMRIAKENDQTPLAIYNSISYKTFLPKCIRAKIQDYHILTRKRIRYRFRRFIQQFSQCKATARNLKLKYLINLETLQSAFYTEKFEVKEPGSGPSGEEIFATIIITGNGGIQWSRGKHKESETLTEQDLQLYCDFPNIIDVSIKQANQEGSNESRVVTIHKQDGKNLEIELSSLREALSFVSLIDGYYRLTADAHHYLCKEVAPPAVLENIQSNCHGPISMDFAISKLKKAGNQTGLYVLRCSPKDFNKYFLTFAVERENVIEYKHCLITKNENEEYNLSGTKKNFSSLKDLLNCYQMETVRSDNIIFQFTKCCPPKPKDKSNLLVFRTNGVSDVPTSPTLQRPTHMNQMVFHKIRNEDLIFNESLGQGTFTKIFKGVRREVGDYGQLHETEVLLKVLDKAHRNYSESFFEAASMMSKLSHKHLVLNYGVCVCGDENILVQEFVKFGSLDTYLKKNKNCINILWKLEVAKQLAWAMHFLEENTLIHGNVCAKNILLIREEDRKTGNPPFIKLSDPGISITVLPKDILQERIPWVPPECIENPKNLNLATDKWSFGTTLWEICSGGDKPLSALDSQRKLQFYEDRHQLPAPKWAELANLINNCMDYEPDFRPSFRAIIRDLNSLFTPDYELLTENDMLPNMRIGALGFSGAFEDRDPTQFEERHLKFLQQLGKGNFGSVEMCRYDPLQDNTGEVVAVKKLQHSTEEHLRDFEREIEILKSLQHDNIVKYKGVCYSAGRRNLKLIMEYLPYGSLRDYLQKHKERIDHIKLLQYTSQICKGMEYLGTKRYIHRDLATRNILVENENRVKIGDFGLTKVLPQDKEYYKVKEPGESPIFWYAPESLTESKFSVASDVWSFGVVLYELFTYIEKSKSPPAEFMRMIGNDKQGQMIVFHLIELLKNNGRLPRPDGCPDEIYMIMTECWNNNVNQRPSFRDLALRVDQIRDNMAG
For test [13], the target named is Rho-associated protein kinase 1 (Homo sapiens) (UniProt Q13464). Nature of the test: Selectivity interaction (KinomeScan (DiscoverX)) EUB0000595a ROCK1. The following applies: at 10 µM.

Sequence of Phosphatidylinositol 4-phosphate 5-kinase type-1 gamma (Homo sapiens) (O60331 whole entry): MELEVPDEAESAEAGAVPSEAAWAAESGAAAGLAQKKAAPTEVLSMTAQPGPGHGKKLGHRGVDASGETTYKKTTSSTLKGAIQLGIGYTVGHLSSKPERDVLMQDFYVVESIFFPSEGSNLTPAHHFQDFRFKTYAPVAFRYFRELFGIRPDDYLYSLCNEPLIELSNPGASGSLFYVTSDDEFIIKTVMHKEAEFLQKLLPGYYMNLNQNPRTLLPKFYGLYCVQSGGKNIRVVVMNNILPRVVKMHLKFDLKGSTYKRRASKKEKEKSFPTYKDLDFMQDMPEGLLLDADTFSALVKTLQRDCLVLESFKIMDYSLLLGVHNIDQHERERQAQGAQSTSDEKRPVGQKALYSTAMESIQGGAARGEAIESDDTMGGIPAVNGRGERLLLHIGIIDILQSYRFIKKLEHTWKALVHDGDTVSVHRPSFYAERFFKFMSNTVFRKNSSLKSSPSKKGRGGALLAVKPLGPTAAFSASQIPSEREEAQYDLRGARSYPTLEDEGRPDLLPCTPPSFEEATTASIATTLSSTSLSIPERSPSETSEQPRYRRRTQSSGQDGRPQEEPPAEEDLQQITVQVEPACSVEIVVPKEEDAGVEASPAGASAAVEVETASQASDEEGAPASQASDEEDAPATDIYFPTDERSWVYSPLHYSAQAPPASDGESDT

With `C=CC(=O)Nc1ccc(C(=O)Nc2[nH]nc3c2CN(C(=O)N[C@H](CN(C)C)c2ccccc2)C3(C)C)cc1`, the % of engagement in [1] was 4.4%.

Regarding `CN(C)C/C=C/C(=O)Nc1ccc(C(=O)N2CCCC(Nc3ncc(Cl)c(-c4c[nH]c5ccccc45)n3)C2)cc1` (stereo not drawn), the % of control in [2] is 96%.

The compound `CNCCN1CCC(c2cc(CN(C)C(=O)c3cccc(Oc4ccccc4)c3)ccn2)CC1` returned a % activity in test [3] of more than 85%.

For the compound `COc1cc(N(C)c2ccnc3ccc(C(F)(F)F)cc23)cc(OC)c1OC`, the % binding in test [4] was found to be 97%; in test [5], 94%.

For the compound `Nc1cnc(N2CCc3cc(S(=O)(=O)Nc4c(F)cc(Cl)cc4F)cc(N4CCCC4=O)c32)nc1` [TP-020n], in [6], the % of control was found to be 100%.

Regarding `N#Cc1cccc(-c2c[nH]c3ncnc(N4CCOCC4)c23)c1`, the % of inhibition in test [7] was determined as 11%.

As to `Cc1cc(F)c(C(=O)Nc2cccc(-c3nncn3C(C)C)n2)cc1-n1cnc(C2CC2)c1`, the % of control in test [8] and in test [9] was 100% each time.

Take `CCC(=O)N1CCN(c2ccc(-n3c(=O)ccc4cnc5ccc(-c6cnc7ccccc7c6)cc5c43)cc2C(F)(F)F)CC1`: in test [10], the % of control amounted to 100%.

Compound `O[C@H]1CC[C@H](Nc2ncc3nc(Nc4c(F)cc(F)cc4F)n([C@H]4CCOC4)c3n2)CC1` gave a % of control in [11] of 30%.

As to `COCC(=O)NC/C=C/c1ccc2ncnc(Nc3ccc(Oc4ccc(C)nc4)c(C)c3)c2c1` [CP-724714], the % of control in test [12] and in test [13] was 100% each time.
